A short description of data set [1]: PK/PD study: plasma Δ^9-THC levels after single-dose inhalation of Cannabis flos with the metered-dose inhaler.
The subject of data set [2] is patients suffering from chronic neuropathic pain. The conditions noted are these: cited from earlier work; for reduction of pain intensity: vaporized 10.3 mg total available Δ^9-THC in two sessions.
Data set [3] relates to patients suffering from neuropathic pain. The data set can be described thus: VAS pain intensity after single-dose inhalation (PK/PD study). Type of data set: in vivo, human. The protocol: The study was used to further evaluate the pharmacodynamic effect of pulmonary delivery of Δ^9-THC on pain reduction from baseline using a 10 cm visual analog scale (VAS) pain scale (0 being no pain; and 10 being worst possible pain); for monitoring adverse effects, blood pressure and heart rate, and for estimating the degree of satisfaction with the use of the MDI on a 0-10 scale.
(§1) Pain intensity reduction was assessed as a therapeutic effect by asking participants to indicate the intensity of their current pain on a 100 mm visual analog scale (VAS) between 0 (no pain) and 100 (worst possible pain) at baseline (prior to the inhalation) and at 20 and 90 minutes following the pulmonary delivery of the pharmaceutically active agent from cannabis. Adverse effects, in the form of psychotropic symptoms, were recorded at 5, 15, 30, 60 and 120 minutes post pulmonary delivery, along with those spontaneously reported by the participants. Adverse effects were evaluated according to standardized criteria in terms of severity, frequency, duration and relationship to the study's active agent. Adverse effects were graded using the NIH Division of AIDS table for scoring severity of adult adverse experiences. Blood pressure and pulse rate were also recorded before, during and after the pulmonary delivery.
(§2) Results are reported herein as mean values±1 standard deviation (±SD). For each one of the measured effects (VAS pain intensity, systolic and diastolic blood pressure, heart rate and satisfaction score), the mean and 95% confidence interval (CI) at different time points was plotted. Differences between VAS pain intensity values and satisfaction scores, before and after inhalation, were tested by two-tailed paired Student t-test. Blood pressure and heart rate values were compared among different time points by one-way ANOVA. P-values<0.05 were accepted as significant. All statistical analyses were performed using Minitab Statistical Software, version 16.

Data set [4] shares this test system. The data set can be described thus: Adverse effects, blood pressure and heart rate after single-dose inhalation (PK/PD study). Type of data set: in vivo, human. The following applies: for heart rate: baseline 71±12, P=0.873; for mean diastolic blood pressure: baseline 82±9, P=0.410; for mean systolic blood pressure: baseline 133±13, P=0.068; for adverse effects (overall): single inhalation, 8 patients. As for the experimental part:
as §1, §2

The conditions of data set [5]: cited from earlier work; for mean Cmax increase per mg Δ^9-THC: Huestis et al.
Where [6] appears, read: single inhalation, 3.08±0.02 mg total available Δ^9-THC.

Structures are written as SMILES. Several values for one entry are separate records, joined by “and”; a condition that tells them apart may be missing. Equal entries are not always repeated. Where two headings read alike, the source gives them in different places.

The values below come from US12194230B2, “Methods, devices and systems for pulmonary delivery of active agents” (priority 2014, dated 2025).

Take `CCCCCc1cc(O)c2c(c1)OC(C)(C)[C@@H]1CCC(CO)=C[C@@H]21` [11-OH-THC, 11-hydroxy Δ^9-THC]: in data set [1] (blood sampling 0-120 minutes after inhalation), the “plasma levels of the active metabolite” value was “No measurable plasma levels”.
As for `CCCCCc1cc(O)c2c(c1)OC(C)(C)[C@@H]1CCC(C)=C[C@@H]21` [Δ^9-THC, Δ9-tetrahydrocannabinol], in data set [2] (Ware et al. 2010, single smoke inhalation of 25±1 mg cannabis with 9.4% Δ^9-THC (2.35 mg), three times a day for 5 days), the “mean Cmax elevation” value is 45 ng/mL. Moreover, in data set [2] (Ware et al. 2010, single smoke inhalation of 25±1 mg cannabis with 9.4% Δ^9-THC, three times a day for 5 days, compared to placebo), the “decrease in average daily pain intensity” value is listed as 11.4%. Besides, the “reduction of neuropathic pain (plateau, ceiling effect)” value in data set [2] (Wilsey et al. 2008, smoking 19 mg or 34 mg total available Δ^9-THC divided to 3 doses) is 45%. Also, in data set [2] (Wilsey et al. 2013, THC dose increased to 28.2 mg), the “analgesic response compared with the 10.3 mg dose” value is on record as “equianalgesic response”. The “reduction of pain intensity” value in data set [2] (Wilsey et al. 2013, 3 hours) is 31%; in data set [2] (Wilsey et al. 2013, 5 hours) it was 25%; in data set [3] (setting [6]), 45%. Moreover, in data set [3] (20 minutes after inhalation, baseline 7.5±1.4, 95% CI 2.1-4.9, P=0.001), the “decrease of VAS pain intensity from baseline (difference)” value came to 3.4 points. In data set [3] (90 minutes post-dosing), the “VAS pain intensity versus baseline” value was “virtually identical results as at baseline”. The “time within which the pain reduction reversed” value in data set [3] (setting [6]) was no more than 90 min. Also, the heart rate in data set [4] (30 minutes post-inhalation) is given as 72±11 bpm; in data set [4] (90 minutes post-inhalation), 69±13 bpm. Further, the “mean diastolic blood pressure” value in data set [4] (30 minutes post-inhalation) is recorded as 75±10 mm Hg; in data set [4] (90 minutes post-inhalation), 81±12 mm Hg. For the same compound, the figures for the “mean systolic blood pressure” value in data set [4] (30 minutes post-inhalation) and in data set [4] (90 minutes post-inhalation) were 122±10 mm Hg and 121±11 mm Hg, respectively. Moreover, the figures for the “time to full recovery from light headedness” value in data set [4] (all the other patients) and in data set [4] (three patients) were no more than 30 min and no more than 15 min, respectively. Moreover, the “patients experiencing light headedness” value in data set [4] (first 10 minutes following inhalation, seven of eight patients) is 87.5%. Also, the “adverse effects (overall)” value in data set [4] was “minimal, reversible and well tolerated”; in data set [4] (listed as THC), “minimal, reversible and receded rapidly”. In data set [1] (MDI device), the “inter-individual variability (CV) of peak plasma THC concentration (Cmax)” value was found to be 25.3%. Besides, the “increase of Cmax per mg of THC available in the cannabis used (mean)” value in data set [1] (pulmonary delivery with the MDI device) worked out at 12.3 ng/mL/mg. Moreover, in data set [1] (six patients without residual plasma THC at baseline), the “time of first detection in blood sample post-inhalation” value was 1 min. The “increase of Cmax per mg of THC” value was 6.1 to 9.0 ng/mL/mg in data set [5] (Volcano vaporizer, Abrams et al. 2007, 2011) and 0.6 to 4.6 ng/mL/mg in data set [5] (regular smoking cigarettes, Ohlsson, Hunault, Huestis). For the same compound, the “mean Cmax increase per mg Δ^9-THC” value was 3.54 ng/ml per mg in data set [5] (after the first puff of a 1.75% Δ^9-THC cigarette) and 4.28 ng/ml per mg in data set [5] (after the first puff of a 3.55% Δ^9-THC cigarette). The “plasma Cmax per mg of Δ^9-THC administered” value in data set [5] (intravenous administration, D'Souza et al. 2004) is 32.8 ng Δ^9-THC/ml plasma and 23.8 ng Δ^9-THC/ml plasma. Further, the “inter-individual variability (CV) of Cmax” value in data set [5] (oral administration) is listed as 42-115%; in data set [5] (oromucosal route of delivery), 59-67%; in data set [5] (smoking cigarettes) it was 32-115%; in data set [5] (vaporizer), 47-85%. The “time of peak plasma concentrations” value in data set [5] (smoking products of cannabis) is 1 to 3 min. Further, in data set [5] (smoking route, listed as THC), the bioavailability is 2-56% and 2 to 56%. The “first onset of effects” value in data set [5] (smoking) was “about 7 minutes”.
